# Experiments:
# H460 tumors = assay: Tumor platinum levels in H460 tumor-bearing nude mice (ICP-MS); type: in vivo; settings: dosed at 4 mg/kg, 24-hour time point
# Protocol: To examine the ability of compounds disclosed herein to accumulate in tumors, a murine cancer model was used. Animals were inoculated with 5×10^5 H460 […] lung cancer cells via subcutaneous injection to the flank. Tumors were allowed to reach an approximate volume of ˜500 mm^3. Animals were then randomized into treatment groups of 3 animals per time point and were dosed at 4 mg/kg. The 24-hour time point was used as a benchmark across compounds.
# Tumor platinum levels were determined by inductively coupled plasma mass spectrometry (ICP-MS). Tumors were excised from animals and dissolved in fuming nitric acid (60% w/w) by adding four parts nitric acid to 1 part tumor w/w and heating overnight at 60° C. The resulting digest was diluted 1:10 in ICP-MS analysis buffer (1% nitric acid, 2% Triton® X-100), and directly introduced into the ICP-MS unit by peristaltic pump. The end dilution factor for the samples as introduced to the ICP-MS was 50×.
# [1] = system: MX-1 human breast cancer xenograft (BRCA1 and BRCA2 mutant); assay: MX-1 human breast cancer xenograft study; type: in vivo, mice
# Protocol: (§1) Tumor measurements were taken twice weekly, using vernier calipers.
# (§2) All statistical analyses were performed using GraphPad PRISM®. Version 6.00.
# Tumor volumes of MX-1 induced xenografts in mice were measured after multiple intravenous doses of compound 8 at 15 mg/kg at day 1, day 5, day 8 and day 12 (two times per week for two weeks) for the main study group. […] MX-1 cell line is estrogen receptor negative and Her2 normal. It is BRCA1 and BRCA2 mutant: BRCA1 truncating mutation (3363delGAAA) and BRCA2 mutations (16864A>C, Asn289His, and 22184A>G, Asn991Asp). Satellite groups (n=5) were collected on Day 9 for platinum tumor measurements. […] Only one tumor from the 10 mg/kg group began to grow back at on Day 71, with a volume of 39 mm^3 at end of study, Day 75.
# [2] = target: albumin tryptic peptide T3 (Homo sapiens, UniProt P02768); assay: LC MS/MS analysis with albumin tryptic peptide T3; type: binding; settings: FIG. 11B
# Excerpt: Signals of T3 endogenous conjugates and T3-Compound 8 conjugates were observed and were evidence that Compound 8 binds to T3.
# [3] = system: NCI-H520 lung cancer (NSCLC) model; assay: NCI-H520 multiple dose study: tumor volume, platinum levels, IHC and TUNEL; type: in vivo; settings: day 10, FIG. 24 and 25
# Protocol: Tumor volumes and platinum levels were tracked over a course of 32 days after treatment of multiple doses of compound 8 (dosed at days 0, 3, 7 and 10) in lung cancer (NSCLC) model NCI-H520. Compound 8 was dosed at 15 mg/kg.
# Cell dedifferentiation and apoptosis were studied with immunohistochemical (IHC) and TUNEL stainings.
# [4] = in vivo
# Protocol: (§3) Platinum concentrations in rat (n=3) and dog (n=3) were both measured in a course of 100 hours and 400 hours, respectively.
# [5] = in vivo; remark: listed apart in the source
# Protocol: as §3
# [6] = system: A2780 (ovarian) xenografts; settings: compound 8 at 20 mg/kg, FIG. 20
# Protocol: In these experiments, the ability of compounds to affect the growth of human Calu-6 NSCLC (non-small cell lung cancer) A2780 (ovarian), MIA Paca-2 (pancreatic) and BxPC-3 (pancreatic) xenografts was tested. […] For the MIA Paca-2, BxPC-3 in vivo studies, the tumor material was maintained by serial engraftment in female nude NCR nude mice. To initiate tumor growth, a 1 mm^3 fragment was implanted subcutaneously in the right flank of each test animal. The animals were 9 and 10-11 weeks old at the time the study started for BxPC-3 and MIA Paca-2 models, respectively. For the MX-1 in vivo studies, tumor material was maintained by serial engraftment in athymic nude mice. To initiate tumor growth a 3×3 mm pieces implanted subcutaneously in the right flank of each test animal. The animals were 5 weeks old at the time of implantation.
# Tumor measurements were taken twice weekly, using vernier calipers. Tumor volume was calculated using the formula: V=0.5×width×width×length.
# When tumors approached a volume of 100 mm^3, mice were randomized into three groups of ten animals. […] Mice were dosed twice weekly for the duration of the study. […] Twenty-four hours after the final dose tumor volumes were measured again for calculation of tumor growth inhibition. […] Final tumor volumes were analyzed using with a one-way analysis of variance and Tukey multiple comparison test.
# [7] = system: BxPC-3 (pancreatic) xenografts, KRAS wild type; assay: BxPC-3 xenograft tumor growth inhibition; type: in vivo, mice; settings: Table 4-2; compound 5 at 15 mg/kg iv twice weekly
# Protocol: as §1, §2
# Chain of albumin tryptic peptide T3 (P02768 45-65 limits assumed): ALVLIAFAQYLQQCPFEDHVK
molecule,measurement,setting,value
"N.N.[Cl][Pt][Cl] [Cisplatin, reference compound]",Platinum in tumor,H460 tumors,0.27 mM/mmole/kg platinum dosed
same,TGI % at Day 12,"[1]; 3 mg/kg, day 1, 5, 8, 12",95.1%
same,"tumor regrowth at end of study, Day 75","[1]; cisplatin treated group, 3 mg/kg",no tumor regrowth
CC(=O)[O][Pt]([NH2])([NH2])([Cl])([Cl])[O]C(=O)NCCCCCN1C(=O)C=CC1=O [Compound 8],binding to albumin tryptic peptide T3,[2],binds to T3
same,"apoptosis and dedifferentiation (IHC, TUNEL)",[3],significant and sustained increase in apoptosis and dedifferentiation
same,Half-life Rat,[4],44 h
same,"tumor regrowth at end of study, Day 75",[1]; 15 mg/kg group,no tumor regrowth
same,tumor volume outcome,[1]; day 12,Tumor disappeared
same,platinum delivered to the tumor versus cisplatin,"[1]; satellite groups, Day 9, FIG. 30",higher concentrations of platinum to the tumor than cisplatin
same,Half-life Dog,[5],174 h
same,tumor inhibition versus cisplatin,[6],superior efficacy in tumor inhibition compared to cisplatin
O=C1[O][Pt]2([NH][C@@H]3CCCC[C@H]3[NH]2)[O]C1=O [Oxaliplatin],Platinum in tumor,H460 tumors,0.12 mM/mmole/kg platinum dosed
same,TGI %,[7],21.0%
"acetate 6-(2,5-dioxo-2H-pyrrol-1(5H)-yl) hexanoate oxaliplatin [Compound 1]",Platinum in tumor,H460 tumors,0.57 mM/mmole/kg platinum dosed

# — patent US10322137B2, “Platinum compounds, compositions, and uses thereof” (PLACON THERAPEUTICS, INC., priority 2014, dated 2019)
